The record followed here is patent publication US11970474B2, “Substituted benzodiazoles and use thereof in therapy” (THOMAS HELLEDAYS STIFTELSE FÖR MEDICINSK FORSKNING, priority 2018, dated 2024).

Holding throughout (type): cell-based
Test [1] has as its system CCL2. Nature of the test: Mouse CCL2 assay in MLE12 cells. The following applies: Mus musculus, MLE12, 30 h, MLE12 cells; TNF-α 20 ng/ml; supernatant after 30 hours; HTRF; read-out: CCL2 (EC50). The procedure, abridged: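 CCL2 in supernatants was quantified by two-antibody HTRF FRET, read at 620 and 665 nm after overnight RT incubation, with IC50 derived from delta ratios. Cells were SV40-transformed mouse MLE12, treated with duplicate 6-point compound series for 1 h before 30 h TNF-α (20 ng/ml final) stimulation.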

Test [2] has as its system Hec59 + Chr2. Nature of the test: Cell viability assay (resazurin). The following applies: 120 h, Cancer, endometrioid adenocarcinoma, five day incubation. The method, then:
(§1) A dilution series of compound or vehicle are transferred to 96-well plates. Cells are seeded into the plate (500-10,000 cells/well) in suitable media and incubated for five days in 5% CO2 at 37° C. Thereafter, resazurin (diluted in suitable medium or PBS) are added to a final concentration 10 μg/ml resazurin at 37° C. for 2-4 hours before measuring the fluorescence (Ex544/Em590), essentially as described (Riss, Terry L. et al., “Cell Viability Assays.” In Assay Guidance Manual, ed. G. Sitta Sittampalam, et al. Bethesda (Md.): Eli Lilly & Company and the National Center for Advancing Translational Sciences (2004) http://www.ncbi.nlm.nih.gov/books/NBK144065/).
(§2) The compounds to be tested are nano-dispensed in duplicate in 11 concentrations, directly in 384-well cell plates, with a final DMSO concentration<1%. Cells are seeded in cell plates, pre-dispensed with compounds (200-2500 cells/well in 50 μl). After three or five days culture in 5% CO2, 37° C., resazurin diluted in PBS is added, 10 μl/well, to a final concentration of 10 μg/ml and cells are incubated 2-4 hours before measuring fluorescence (Ex544/Em590), as described (ibid.). Results obtained for selected example compounds described herein on cancer- and non-transformed cell lines are provided in the table below (Table 3) and summarized in FIG. 1. Where indicated, combination indexes was measured with CompuSyn software (www.compusyn.com) by the method of Chou-Talalay (Chou, Ting-Chao., Cancer Research, 70(2), 440-46 (2010)).
For orientation: Resazurin is reduced to fluorescent resorufin, in cell work by metabolically active cells.

Test [3] concerns Hec59. Nature of the test: Cell viability assay (resazurin). The following applies: 120 h, Cancer, endometrioid adenocarcinoma, five day incubation. The method, then: as §1, §2
Test [4] concerns K562. Nature of the test: Cell viability assay (resazurin). The following applies: Homo sapiens, 120 h, Cancer, Chronic Myelogenous Leukemia, five day incubation. The procedure:
as §1, §2

The test system of test [5] is NB-4. In words: Cell viability assay (resazurin). The following applies: Homo sapiens, 120 h, Cancer, acute promyelocytic leukemia, five day incubation. The procedure:
as §1, §2

For test [6], the system named is SW1271. In words: Cell viability assay (resazurin). The following applies: 120 h, Cancer, Small Cell Lung Carcinoma, five day incubation. The procedure: as §1, §2
The subject of test [7] is THP1. Nature of the test: Cell viability assay (resazurin). The following applies: Homo sapiens, THP-1, 120 h, Cancer, Acute Monocytic Leukemia, five day incubation. The procedure:
as §1, §2

Test [8] has as its system ACHN. Nature of the test: Colony formation survival assay. The following applies: cancer cell line ACHN; 7-11 days. The procedure: (§3) Example compounds or vehicle are transferred to 6-well plates. Cell lines to be tested are seeded at a density of 200-500 cells/well in suitable media and allowed to grow for 7-11 days in at 5% CO2, 37° C. The medium is removed and replaced with 4% w/v methylene blue in methanol. Following extensive washes in tap water and air drying, […] with more than 50 […] are counted, as described in Franken, Nicolaas A. P., et al., Nature Protocols, 1(5), 2315-19 (2006).

Test [9] deals with H460. Nature of the test: Colony formation survival assay. The following applies: cancer cell line H460; 7-11 days. The method, then: as §3

What is called EC50 is the concentration that produces a half-maximal response. Turning to `Cc1cc(NC(=O)N2CCC(n3c(=O)[nH]c4c(Br)cccc43)CC2)ccc1I` [Example 50, 4-(4-Bromo-2-oxo-2,3-dihydro-1H-1,3-benzodiazol-1-yl)-N-(4-iodo-3-methylphenyl)piperidine-1-carboxamide], in test [1], the EC50 is 15.4 µM.
Turning to `O=C(Nc1ccc(Cl)c(Cl)c1)N1CCC(n2c(=O)[nH]c3c(-c4ccc(CO)nc4)cccc32)CC1` [Example 28, N-(3,4-dichlorophenyl)-4-{4-[6-(hydroxymethyl)pyridin-3-yl]-2-oxo-2,3-dihydro-1H-1,3-benzodiazol-1-yl}piperidine-1-carboxamide], the EC50 in test [2] amounted to 17 µM; in test [3], 11 µM; in test [4], 21 µM; in [5], 11 µM; in [6], 25 µM; in test [7] it was 19 µM. Further, the EC50 in test [1] came to 17 µM.
Regarding `O=C(Nc1ccc(I)cc1)N1CCC(n2c(=O)[nH]c3c(Br)cccc32)CC1` [Example 13, 4-(4-Bromo-2-oxo-2,3-dihydro-1H-1,3-benzodiazol-1-yl)-N-(4-iodophenyl)piperidine-1-carboxamide], the EC50 in test [2] worked out at 16 µM; in test [3], 17 µM; in test [4], 20 µM; in test [5], 5 µM; in test [6], 22 µM; in test [7], 23 µM. Further, the EC50 in [1] turned out to be 18.8 µM. Moreover, the colony formation result in test [8] and in [9] was “inhibits colony formation” throughout.
